Results on three compounds are retold here after US20040034039A1, “Solid preparations” (priority 2000, published 2004).

The data set in a line: Contact angle of a water drop on a compression-molded product. In kind it is physicochemical. Conditions: purified water drop on 300 mg, 13 mm compression-molded product (1 ton/cm^2), 15 seconds after placing. How it is done: The “water-repellent physiologically active substance” to be used in the present invention is exemplified by a substance difficult to get wet, or having a large contact angle, and the like. A specific example thereof is a physiologically active substance having a contact angle of not less than 40 degrees, preferably not less than 60 degrees, more preferably not less than 80 degrees, as measured by forming a compression-molded product (300 mg) having a diameter of 13 mm with Shimadzu autograph (AG-5000B, manufactured by Shimadzu Corporation) at a load of 1 ton/cm^2, placing one drop of purified water on the surface thereof with a syringe, and determining the contact angles of the water drop at 15 seconds after placing with an automatic contact angle meter (CA-Z, manufactured by Kyowa Interface Science Co., Ltd.), and the like. The contact angle of a representative highly water-repellent substance, magnesium stearate, compound A to be mentioned later: (5-(N-benzyl-N-methylaminomethyl)-1-(2,6-difluorobenzyl)-6-[4-(3-methoxyureido)phenyl]-3-phenylthieno[2,3-d]jpyrimidine-2,4(1H,3H)-dione), and compound B to be mentioned later (3-(N-benzyl-N-methylaminomethyl)-4,7-dihydro-5-isobutyryl-7-(2,6-difluorobenzyl)-2-[4-[(1-hydroxycyclopropyl)carbonylamino]phenyl]-4-oxothieno[2,3-b]pyridine) as measured according to the aforementioned method were about 96 degrees, about 90 degrees and about 88 degrees respectively.

Turning to `CONC(=O)Nc1ccc(-c2sc3c(c2CN(C)Cc2ccccc2)c(=O)n(-c2ccccc2)c(=O)n3Cc2c(F)cccc2F)cc1` [compound A, 5-(N-benzyl-N-methylaminomethyl)-1-(2,6-difluorobenzyl)-6-[4-(3-methoxyureido)phenyl]-3-phenylthieno[2,3-d]pyrimidine-2,4(1H,3H)-dione], the contact angle entry was “about 90 degrees”.

With `CC(C)C(=O)c1cn(Cc2c(F)cccc2F)c2sc(-c3ccc(NC(=O)C4(O)CC4)cc3)c(CN(C)Cc3ccccc3)c2c1=O` [compound B, 3-(N-benzyl-N-methylaminomethyl)-4,7-dihydro-5-isobutyryl-7-(2,6-difluorobenzyl)-2-[4-[(1-hydroxycyclopropyl)carbonylamino]phenyl]-4-oxothieno[2,3-b]pyridine], the contact angle result is on record as “about 88 degrees”.

magnesium stearate [reference compound]: the contact angle result is recorded as “about 96 degrees”.
